The assay relates to K562. Briefly: Cytotoxicity against Homo sapiens (human) K562 cells after 24 hr by MTT assay. In kind it is functional, cell-based. The settings on record: K562, 24 h. In general terms: Formazan colour is commonly taken as a measure of viable cells.

Consider twelve compounds from ChEMBL document CHEMBL3046440, “Synthesis and antitumor evaluation of some 1,3,4-oxadiazole-2(3H)-thione and 1,2,4-triazole-5(1H)-thione derivatives” (Med Chem Res, 2012).

A word on the IC50: it is the concentration that inhibits the measured activity by half. Lower therefore signals greater potency in that assay. For the compound `C[C@H](NC(=O)c1ccc(Cl)cc1)c1n[nH]c(=S)n1N`, the IC50 is 98.6 µM.
Then `COc1ccc(/C=C/C(=O)N[C@H](C)c2n[nH]c(=S)o2)cc1`, with 330 µM.
Turning to `CC(C)[C@H](NC(=O)c1ccccc1)c1n[nH]c(=S)o1`, the IC50 was determined as 245 µM.
In the case of `C[C@H](NC(=O)Cc1ccccc1)c1n[nH]c(=S)o1` it was 1020 µM; in that of `C[C@H](NC(=O)c1ccc(Cl)cc1)c1n[nH]c(=S)o1`, 31.1 µM.
In the case of `CC(C)[C@H](NC(=O)c1ccccc1)c1n[nH]c(=S)n1N` it was 154 µM; in that of `NC(=O)NO` [HYDROXYUREA], 688 µM.
Then `O=C(/C=C/c1ccccc1)N[C@H](CO)c1n[nH]c(=S)o1`, with 435 µM.
Take `C[C@H](NC(=O)c1ccccc1)c1n[nH]c(=S)n1N`: it took 372 µM to reach half-maximal inhibition (IC50).
In the case of `CC(C)[C@H](NC(=O)c1ccc([N+](=O)[O-])cc1)c1n[nH]c(=S)o1` it was 43.6 µM; in that of `C[C@H](NC(=O)c1cccnc1)c1n[nH]c(=S)o1`, 739 µM; in that of `C[C@H](NC(=O)c1ccccc1)c1n[nH]c(=S)o1`, 377 µM.
